Experimental data from patent US20120136050A1, “USE OF A MELATONIN AGONIST FOR THE TREATMENT OF SLEEP DISORDERS INCLUDING PRIMARY INSOMNIA” (VANDA PHARMACEUTICALS INC., priority 2009, published 2012).

What was measured:
[1] = tested on: healthy volunteers, 5 hour advance in bedtime; assay: Example 1: placebo-controlled clinical trial, 5 hour advance in bedtime (DLMO, PSG); assay type: in vivo, human
Description: A clinical trial was conducted to assess the safety of Compound A as well as to determine the ability of Compound A to shift the sleep/wake cycle following a 5 hour advance in bedtime. The study was a randomized, double-blind, parallel group, placebo-controlled study. It consisted of a 2-4 week outpatient screening period followed by an 8-day inpatient stay. After acclimating to the sleep lab, bedtime was advanced by 5 hours. The primary objectives of this study were to investigate the exposure-response to Compound A on advancement of circadian release of endogenous melatonin rhythm as measured by dim light melatonin onset (DLMO, a biomarker of the sleep-wake cycle), to investigate the exposure-response to Compound A on mean sleep efficiency parameters as measured by PSG, to investigate the exposure-response to Compound A on objective neurobehavioral performance lapses during scheduled work-time as measured by computerized continuous performance testing, and to assess the safety and tolerability of Compound A. Forty-five healthy volunteers, men and women aged 18-50, were enrolled into this study. Thirty-nine subjects were randomized.
The study was designed to assess the safety and efficacy of four oral doses of Compound A (10 mg, 20 mg, 50 mg and 100 mg) compared to matching placebo on circadian phase shift, sleep parameters during the major sleep episode, and subject alertness. After written informed consent was signed, subjects that met the inclusion/exclusion criteria at screening and baseline were enrolled into the 8-day in-patient portion of the study. All in-patient assessments were conducted in a time-isolation sleep lab in which no time cues were available to subjects. During the first three nights, subjects were given placebo 30 minutes prior to bedtime (11:00 PM) in a single-blind fashion. Baseline assessments for the efficacy parameters were measured during this period. At 5:00 PM on day 3, subjects started a 19 hour pre-constant posture (CP) segment during which time the subjects remained seated in a semi-recumbent position and blood samples were collected approximately every hour from 7:00 AM to 12:00 PM. The purpose of the pre-CP segment is to provide a measure of each subject's circadian phase before the start of the night shift segment. On day 4, subjects were randomized to once daily treatment in one of the five treatment groups. In addition, subject sleep-wake routines were advanced 5 hours, such that subjects were required to sleep from approximately 6:00 PM-2:00 AM. Treatment was administered and the time shift was maintained for 3 days. Efficacy parameters were collected during this time. To measure circadian phase at the end of the study, a 24-hour post-CP was conducted immediately after the treatment segment on day 7. Over the course of the study, approximately 500 mL of blood was drawn from each subject. Safety was assessed throughout the study, at the end of study (EOS) visit on day 8, and at the Follow-up visit. The target number of subjects for enrollment was 40 but 45 were actually enrolled.
To assess circadian sleep-wake cycles in the study, plasma melatonin levels were assessed. The onset of melatonin production, or dim light melatonin onset (DLMO), is associated with onset of sleep. DLMO is considered a standard marker used frequently to assess circadian phase. To assess the effects of Compound A on the sleep-wake cycles, DLMO was monitored in subjects before and after treatment. For this study, DLMO was defined as the time when melatonin production reaches 25% of the nightly peak (MEL25% up) of the fitted melatonin phase curve.
Because light has a significant confounding effect on melatonin release, light levels in the sleep laboratory were carefully regulated. […]

[2] = Particle size by laser diffraction (Malvern Mastersizer); assay type: physicochemical
Description: Particle size will also affect the dose selected. At larger particle sizes, i.e., D50 is greater than about 100 m, e.g., about 100 m to about 200 m oral doses at the higher end, i.e., up to about 100 mg are effective, whereas at smaller particle sizes, i.e., D50 is less than about 100 m, e.g., about 20 m to about 50 m, lower doses, i.e., less than about 100 mg, are useful, e.g., about 10 mg to about 80 mg and about 20 mg to about 50 mg. (Particle size measurements supporting the above were made laser diffraction using a Malvern Mastersizer. The D50 (D10, D90, D100) value means that 50% (10%, 90%, 100%) of the particles by weight are of the indicated diameter or smaller.) In one embodiment of the invention, the above doses are administered in immediate release form, i.e., a non-controlled release formulation.

[3] = material used in Example 1 study
[4] = material used in Example 2 study, material used in sleep latency study

CCC(=O)NC[C@@H]1C[C@H]1c1cccc2c1CCO2 [Compound A, N-[[(1R,2R)-2-(2,3-dihydro-1-benzofuran-4-yl)cycloproply]methyl]propanamide]
Change in DLMO25%,LOQ5 between Night 4 and Night 3 ([1]; 10 mg, N = 8): 0.18 h
Change in WASO (fraction of time awake from persistent sleep to lights on) between Night 4 and Night 2 ([1]; 10 mg, N = 8): 8.37 % points
Change in WASO between Night 4 and Night 2 ([1]; 10 mg, N = 8): 40.56 min
Mean Change in Sleep Efficiency between Night 4 and Night 2, Full Night ([1]; 10 mg, N = 8): −7.77 % points
Change in Latency to Persistent Sleep between Night 4 and Night 2 ([1]; 10 mg, N = 8, mean ± SD, p 0.0034 vs placebo): -8.25 ± 16.34 min
Mean Change in Sleep Efficiency between Night 4 and Night 2, 2nd Third of the Night ([1]; 10 mg, N = 8, mean ± SD, p 0.0303 vs placebo): −12.64 ± 13.83 % points
Change in DLMO25%,LOQ5 between Night 4 and Night 3 ([1]; 20 mg, N = 7): -1.14 h
Change in Latency to Persistent Sleep between Night 4 and Night 2 ([1]; 20 mg, N = 8): 5.00 min
Change in WASO (fraction of time awake from persistent sleep to lights on) between Night 4 and Night 2 ([1]; 20 mg, N = 8): 6.91 % points
Change in WASO between Night 4 and Night 2 ([1]; 20 mg, N = 8): 31.19 min
Mean Change in Sleep Efficiency between Night 4 and Night 2, Full Night ([1]; 20 mg, N = 8): −6.68 % points
Mean Change in Sleep Efficiency between Night 4 and Night 2, 2nd Third of the Night ([1]; 20 mg, N = 8, mean ± SD, p 0.0048 vs placebo): −5.11 ± 12.78 % points
Change in DLMO25%,LOQ5 between Night 4 and Night 3 ([1]; 50 mg, N = 4): -0.50 h
Change in WASO (fraction of time awake from persistent sleep to lights on) between Night 4 and Night 2 ([1]; 50 mg, N = 7): 6.61 % points
Change in WASO between Night 4 and Night 2 ([1]; 50 mg, N = 7): 31.21 min
Mean Change in Sleep Efficiency between Night 4 and Night 2, 2nd Third of the Night ([1]; 50 mg, N = 7, mean ± SD, p 0.0028 vs placebo): −2.10 ± 4.14 % points
Change in Latency to Persistent Sleep between Night 4 and Night 2 ([1]; 50 mg, N = 7, mean ± SD, p 0.0193 vs placebo): -3.71 ± 10.97 min
Mean Change in Sleep Efficiency between Night 4 and Night 2, Full Night ([1]; 50 mg, N = 7, mean ± SD, p 0.0487 vs placebo): −5.87 ± 9.89 % points
Change in DLMO25%,LOQ5 between Night 4 and Night 3 ([1]; 100 mg, N = 5, mean ± SD, p 0.0276 vs placebo): -2.74 ± 1.95 h
Change in Latency to Persistent Sleep between Night 4 and Night 2 ([1]; 100 mg, N = 6, mean ± SD, p 0.0214 vs placebo): -4.17 ± 6.93 min
Mean Change in Sleep Efficiency between Night 4 and Night 2, 2nd Third of the Night ([1]; 100 mg, N = 7, mean ± SD, p 0.0030 vs placebo): −2.30 ± 5.72 % points
Mean Change in Sleep Efficiency between Night 4 and Night 2, Full Night ([1]; 100 mg, N = 7, mean ± SD, p 0.0141 vs placebo): −2.02 ± 4.94 % points
Change in WASO (fraction of time awake from persistent sleep to lights on) between Night 4 and Night 2 ([1]; 100 mg, N = 7, mean ± SD, p 0.0391 vs placebo): 1.85 ± 4.29 % points
Change in WASO between Night 4 and Night 2 ([1]; 100 mg, N = 7, mean ± SD, p 0.0452 vs placebo): 8.50 ± 20.39 min
number of episodes of REM during the final third of the night ([1]; Night 4, after phase advance): dose-related increase
percentage of time in each sleep stage ([1]; between Night 4 and Night 2): did not change
tolerability ([1]; doses of 10, 20, 50, and 100 mg, conclusion from Examples 1 and 2): well-tolerated
lowest effective dose for DLMO shift ([1]; first dose with statistically significant p-value in ANOVA with contrasts): 100 mg
particle size D10 [2, 3]: 10 µm
particle size D50 [2, 3]: 115 µm
particle size D90 [2, 3]: 316 µm
particle size D100 [2, 3]: 631 µm
particle size D10 [2, 4]: 5 µm
particle size D50 [2, 4]: 25 µm
particle size D90 [2, 4]: 72 µm
particle size D100 [2, 4]: 316 µm
